As a reminder, the IC50 is the concentration that gives 50% inhibition. Read a low IC50 as greater potency. The EC50 is the concentration needed to bring the measured effect to its halfway point. A low value points to an effect from little substance.

For 22 molecules, IC50 and EC50 results are on record in US20210386721A1, “SUBSTITUTED PHENYLPROPENYL PYRIDINE DERIVATIVES, THEIR PREPARATION AND PHARMACEUTICAL APPLICATIONS” (SHANGHAI HAIYAN PHARMACEUTICAL TECHNOLOGY CO., LTD., priority 2019, published 2021).

Structures are written as SMILES. Some results are limits rather than exact numbers.

One assay concerns the target T1, PD-1/PD-L1 (Homo sapiens, UniProt Q9NZQ7).
T1 construct: purchased Cisbio 63ADK000CPDPEB
Nature of the assay: PD-1/PD-L1 binding assay (HTRF, PPI-HTRF). The note with it: HTRF PD1/PD-L1 binding assay kit; 10 nM Tag1-PD-L1; 25° C. As to the method: Assay 1 PD-1/PD-L1 Binding Assay
DMSO is from Sigma, Cat No: D5879; 384-well small volume plate (white) is from Greiner, Cat No: 784075; Anti-PD1 blocking antibody (IC50: 10 nM) is from Cisbio, Cat No: 64CUS000C-1a; Anti-PDL1 blocking antibody (IC50: 0.3 nM) is from Cisbio, Cat No: 64CUS000C-1b; HTRF PD1/PD-L1 binding assay kit is from Cisbio, Cat No: 63ADK000CPDPEB.
1. Prepare the compound to be tested at 2x concentration into 1× reaction buffer containing 4% DMSO;
2. Tag1-PD-L1 protein and Tag2-PD1 protein were prepared in 1× reaction buffer at concentrations of […] and 10 nM, respectively. The final reaction concentration of the experiment was 10 nM Tag1-PD-L1 and 2 nM […];
3. anti-Tag1-Eu3+ antibody is prepared in 1x concentration detection buffer at a ratio of 1:100;
4. anti-Tag2-XL665 antibody is prepared in 1x concentration detection buffer at a ratio of 1:25; Experimental steps
1. 5 μL of compounds to be tested (2×) was added;
2. 2.5 ul Tag1-PD-L1 protein and 2.5 ul Tag2-PD1 protein were added respectively, and the total reaction system is 10 ul, and reacted at 25° C. for 15 minutes;
3. 5 ul anti-Tag1-Eu3+ antibody and 5 ul anti-Tag2-XL665 antibody were added respectively, and reacted at 25° C. for 16 hours;
4. The fluorescence microplate reader HTRF reading program was used to read two readings at 665 nm and 620 nm, the ratio of the two wavelengths was used to judge the activity of the compound, and the IC50 of the compound to be tested is calculated by XLFIT5.0 (IDBS).

Assay [1] has as its system Jurkat T(PD1 Luc-)/CHOK1(PDL-1). The assay can be described thus: Jurkat T(PD1 Luc-)/CHOK1(PDL-1) cell experiment (luciferase reporter). Format: cell-based. The note with it: CHO/PD-L1-OKT3 cells co-cultured with Jurkat/PD1-NFAT-Luc cells for 6 hours; Bio-Glo luciferase signal. As for the experimental part:
Assay 2 Jurkat T(PD1 Luc-)/CHOK1(PDL-1) Cell Experiment
G418, Sangon Biotech #A100859-0001, Cat Number G108BA0003, 5 ml of deionized water being added into each bottle, store at 4° C.
CHO/PD-L1-OKT3 cells (constructed by referring to Promega's PD-1/PD-L1 Blockade Bioassays system) cultured in F-12K medium (containing 10% FBS, 800 ug/ml G418, 400 ug/ml D Hygromycin B) were planted into a 96-well plate at 2×10^4 per well, and incubated for 24 hours at 37° C. and 5% CO2. part of the medium was removed, and the test compound dissolved in DMSO with a final concentration of 1 uM was added, and DMSO at the same concentration was added into the control cells. Jurkat/PD1-NFAT-Luc cells (constructed by referring to Promega's PD-1/PD-L1 Blockade Bioassays system) were added at 5×10^5 per well at the same time, and cultured for 6 hours. The corresponding luciferase signal was detected by Bio-Glo™ (Promega, G7940) reagent. The EC50 of each compound to be tested was calculated through the non-linear regression of XLfit software.
For orientation: A reporter such as luciferase makes a cellular process visible.

T1 sequence (Q9NZQ7 19-238 limits assumed): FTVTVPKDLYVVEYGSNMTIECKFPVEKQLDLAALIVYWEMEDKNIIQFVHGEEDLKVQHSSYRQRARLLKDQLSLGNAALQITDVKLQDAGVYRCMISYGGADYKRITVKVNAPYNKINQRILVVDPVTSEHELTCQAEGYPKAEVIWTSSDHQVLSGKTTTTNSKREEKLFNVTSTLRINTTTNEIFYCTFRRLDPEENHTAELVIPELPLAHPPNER

As for `COc1cc(/C=C/c2ccnc(-c3cccc(Nc4nccc5cc(CN6CC[C@@H](O)C6)cnc45)c3C)c2C#N)c(C(F)(F)F)cc1CN1CC[C@@H](C(=O)O)C1` [Z-14], on PD-1/PD-L1, the IC50 is under 1 nM. The same molecule displayed an EC50 in assay [1] of 208 nM.
The like results for `Cc1cc(/C=C/c2cccc(-c3cccc(-c4nc5cc(CN6CC[C@@H](C(=O)O)C6)cc(C#N)c5o4)c3C)c2C)c(C(F)(F)F)cc1CN1CC[C@@H](O)C1` [Z-18, (R)-1-((7-cyano-2-(3′-((E)-4-(((R)-3-hydroxypyrrolidin-1-yl)methyl)-5-methyl-2-(trifluoromethyl)styryl)-2,2′-dimethyl-[1,1′-biphenyl]-3-yl)benzo[d]oxazol-5-yl)methyl)pyrrolidine-3-carboxylic Acid] were, in that order, 1 nM and 142 nM.
As for `COc1cc(/C=C/c2cccc(-c3cccc(-c4nc5cc(CN6CC[C@@H](C(=O)O)C6)cc(C#N)c5o4)c3C)c2C)c(C(F)(F)F)cc1CN1CC[C@@H](O)C1` [Z-21, (R)-1-((7-cyano-2-(3′-((E)-4-(((R)-3-hydroxypyrrolidin-1-yl)methyl)-5-methoxy-2-(trifluoromethyl)styryl)-2,2′-dimethyl-[1,1′-biphenyl]-3-yl)benzo[d]oxazol-5-yl)methyl) pyrrolidine-3-carboxylic Acid], the IC50 on PD-1/PD-L1 is 1 nM. The same molecule came in with a 50% effective concentration (EC50) in assay [1] of 5 nM.
As to `COc1cc(/C=C/c2cccc(-c3cccc(-c4nc5cc(CN6CC[C@@H](O)C6)cc(C#N)c5o4)c3C)c2C)c(C(F)(F)F)cc1CN1CCCC[C@H]1C(=O)O` [Z-26], at PD-1/PD-L1, the IC50 is 4 nM. The molecule further registered an EC50 in assay [1] of 39 nM.
The like results for `COc1cc(/C=C/c2cccc(-c3cccc(-c4nc5cc(CN6CC[C@@H](C(=O)O)C6)cc(C(N)=O)c5o4)c3C)c2C)c(C(F)(F)F)cc1CN1CC[C@@H](O)C1` [Z-27, (R)-1-((7-carbamoyl-2-(3′-((E)-4-(((R)-3-hydroxypyrrolidin-1-yl)methyl)-5-methoxy-2-(trifluoromethyl)styryl)-2,2′-dimethyl-[1,1′-biphenyl]-3-yl)benzo[d]oxazol-5-yl)methyl)pyrrolidine-3-carboxylic Acid] were, in that order, 1 nM and 176 nM.
The like results for `COc1cc(/C=C/c2cccc(-c3cccc(-c4nc5cc(CN6CC[C@@H](C(=O)O)C6)cc(C#N)c5o4)c3C)c2C)c(C(F)(F)F)cc1CN1CC[C@H](O)C1` [Z-29] were, in that order, 2 nM and 109 nM.
Regarding `COc1cc(/C=C/c2cccc(-c3cccc(-c4nc5cc(CN6CC[C@H](C(=O)O)C6)cc(C#N)c5o4)c3C)c2C)c(C(F)(F)F)cc1CN1CC[C@H](O)C1` [Z-30], on PD-1/PD-L1, the IC50 turned out to be 2 nM. The same molecule had a half-maximal effective concentration (EC50) in assay [1] of 104 nM.
The like results for `COc1cc(/C=C/c2cccc(-c3cccc(-c4nc5cc(CN6CC[C@@H](C(=O)O)C6)cc(C#N)c5o4)c3C)c2C)c(C(F)(F)F)cc1CNCCO` [Z-33] were, in that order, 1 nM and 74 nM.
The corresponding values for `COc1cc(/C=C/c2cccc(-c3cccc(-c4nc5cc(CN6CC[C@@H](C(=O)O)C6)cc(C#N)c5o4)c3C)c2C)c(C(F)(F)F)cc1CN[C@@H](C)CO` [Z-34, (R)-1-((7-cyano-2-(3′-((E)-4-((((S)-1-hydroxypropan-2-yl)amino)methyl)-5-methoxy-2-(trifluoromethyl)styryl)-2,2′-dimethyl-[1,1′-biphenyl]-3-yl)benzo[d]oxazol-5-yl)methyl)pyrrolidine-3-carboxylic Acid] are 2 nM and 79 nM.
Molecule `COc1cc(/C=C/c2cccc(-c3cccc(-c4nc5cc(CN6CC[C@H](C(=O)O)C6)cc(C#N)c5o4)c3C)c2C)c(C(F)(F)F)cc1CN1CC[C@@H](O)C1` [Z-35] showed an IC50 at PD-1/PD-L1 of 2 nM. For the same molecule, it took 29 nM to reach a half-maximal effect in assay [1] (EC50).
The corresponding values for `COc1cc(/C=C/c2cccc(-c3cccc(-c4nc5cc(CN6CC[C@@H](O)C6)cc(C#N)c5o4)c3C)c2C)c(C(F)(F)F)cc1CN1CCC[C@H]1C(=O)O` [Z-36, (4-((E)-2-(3′-(7-cyano-5-(((R)-3-hydroxypyrrolidin-1-yl)methyl)benzo[d]oxazol-2-yl)-2,2′-dimethyl-[1,1′-biphenyl]-3-yl)vinyl)-2-methoxy-5-(trifluoromethyl)benzyl)-L-proline] are 2 nM and 50 nM.
The corresponding values for `COc1cc(/C=C/c2cccc(-c3cccc(-c4nc5cc(CN6CC[C@@H](C(=O)O)C6)cc(C#N)c5o4)c3C)c2Cl)c(C(F)(F)F)cc1CN1CC[C@@H](O)C1` [Z-38] are 1 nM and 83 nM.
The corresponding values for `COc1cc(/C=C/c2cccc(-c3cccc(-c4nc5cc(CNCCO)cc(C#N)c5o4)c3C)c2C)c(C(F)(F)F)cc1CN1CCCC[C@H]1C(=O)O` [Z-40] are 1 nM and 108 nM.
Molecule `COc1cc(/C=C/c2cccc(-c3cccc(-c4nc5cc(CN[C@@H](C)CO)cc(C#N)c5o4)c3C)c2C)c(C(F)(F)F)cc1CN1CCCC[C@H]1C(=O)O` [Z-41, (S)-1-(4-((E)-2-(3′-(7-cyano-5-((((S)-1-hydroxypropan-2-yl)amino)methyl)benzo[d]oxazol-2-yl)-2,2′-dimethyl-[1,1′-biphenyl]-3-yl)vinyl)-2-methoxy-5-(trifluoromethyl)benzyl) piperidine-2-carboxylic Acid] showed an IC50 at PD-1/PD-L1 of 2 nM. For the same molecule, the concentration for a half-maximal effect (EC50) in assay [1] stood at 109 nM.
The like results for `COc1cc(/C=C/c2cccc(-c3cccc(-c4nc5cc(CN6CC[C@@H](C(=O)O)C6)cc(C#N)c5o4)c3Cl)c2C)c(C(F)(F)F)cc1CN1CC[C@@H](O)C1` [Z-42] were, in that order, 1 nM and 64 nM.
The like results for `COc1cc(/C=C/c2cccc(-c3cccc(-c4nc5cc(CN6CC[C@@H](O)C6)cc(C#N)c5o4)c3C)c2C#N)c(C(F)(F)F)cc1CN1CC[C@@H](C(=O)O)C1` [Z-43] were, in that order, 1 nM and 72 nM.
Regarding `COc1cc(/C=C/c2ccnc(-c3cccc(-c4nc5cc(CN6CC[C@@H](O)C6)cc(C#N)c5o4)c3C)c2C#N)c(C(F)(F)F)cc1CN1CC[C@@H](C(=O)O)C1` [Z-49], the half-inhibitory concentration (IC50) at PD-1/PD-L1 worked out at 1 nM. Also, in assay [1], the concentration giving a half-maximal response (EC50) is 78 nM.
As for `Cc1cc(/C=C/c2nccc(-c3cccc(-c4nc5cc(CN6CC[C@@H](O)C6)cc(C#N)c5o4)c3C)c2C#N)c(C(F)(F)F)cc1CN1CC[C@@H](C(=O)O)C1` [Z-51], the IC50 on PD-1/PD-L1 was 1 nM. In assay [1], this molecule showed an EC50 of 56 nM.
On to `COc1cc(/C=C/c2ccnc(-c3cccc(-c4nc5cc(CN6CC[C@@H](O)C6)cc(C#N)c5o4)c3C)c2Cl)c(C(F)(F)F)cc1CN1CC[C@@H](C(=O)O)C1` [Z-52], for which, at PD-1/PD-L1, the concentration for half-maximal inhibition (IC50) was found to be 1 nM. Besides, the response in assay [1] was half-maximal at 153 nM (EC50).
The corresponding values for `COc1cc(/C=C/c2cccc(-c3cccc(-c4nc5c(C#N)cc(CN6CC[C@@H](C(=O)O)C6)cn5n4)c3C)c2C)c(C(F)(F)F)cc1CN1CC[C@@H](O)C1` [Z-53, (R)-1-((8-cyano-2-(3′-((E)-4-(((R)-3-hydroxypyrrolidin-1-yl)methyl)-5-methoxy-2-(trifluoromethyl)styryl)-2,2′-dimethyl-[1,1′-biphenyl]-3-yl)-[1,2,4]triazolo[1,5-a]pyridin-6-yl)methyl) pyrrolidine-3-carboxylic Acid] are 1 nM and 28 nM.
The corresponding values for `COc1cc(/C=C/c2cccc(-c3cccc(-c4ccc(CNC[C@@H]5CCC(=O)N5)c(OC)n4)c3C)c2C)c(C(F)(F)F)cc1CN1CC[C@@H](C(=O)O)C1` [Z-54, (R)-1-(2-methoxy-4-((E)-2-(3′-(6-methoxy-5-(((((S)-5-oxopyrrolidin-2-yl)methyl)amino)methyl)pyridin-2-yl)-2,2′-dimethyl-[1,1′-biphenyl]-3-yl)vinyl)-5-(trifluoromethyl)benzyl)pyrrolidine-3-carboxylic Acid] are 1 nM and 149 nM.
The like results for `COc1cc(/C=C/c2cccc(-c3cccc(-c4cnc(CN5CC[C@@H](O)C5)c(OC)n4)c3C)c2C)c(C(F)(F)F)cc1CN1CC[C@@H](C(=O)O)C1` [Z-57] were, in that order, 1 nM and 66 nM.
